From paper PMC5884652, “New antimicrobial peptide kills drug-resistant pathogens without detectable resistance” (Oncotarget, 2018) come the findings set out here.

The subject of one experiment is E. coli LPS. In words: Peptide-LPS binding affinity assay (dansyl polymyxin B). The note with it: LPS 9 µg, 2.5 μM dansyl polymyxin B, 5 mM HEPES buffer pH 7.4, peptide 0.4 to 4 μM. As for the experimental part: Lipoteichoic acid (LTA) and lipopolysaccharide (LPS) binding affinity assays were performed using a Perkin-Elmer LS55 fluorometer (Waltham, MA, USA). S. aureus LTA and E. coli LPS (9 µg) were incubated with 2.5 μM dansyl-polymyxin B in 5 mM HEPES buffer for 5–10 min at pH 7.4. The CSP-4 peptide was added in 0.4 μM increments from 0.4 to 4 μM. The increase in fluorescence intensity was assessed using a spectrofluorometer at an excitation wavelength of 340 nm and an emission wavelength of 482 nm (Perkin-Elmer LS55).

Another experiment has as its system E. coli CCARM1238. Briefly: microbe, parasite or virus in culture. Format: cell-based, Escherichia coli. The note with it: pH 7.4 (II); 10 mM sodium phosphate buffer, 10% LB; 37° C, 24 h; mean of 3 experiments. The source says:
(§1) The method for peptide synthesis has been described in detail previously. E. coli ATCC 25922 (LB media), P. aeruginosa ATCC 15692 (NB+0.5% NaCl media), Listeria monocytogenes ATCC 3710 (LB media), Staphylococcus epidermidis ATCC 12228 (LB media), and S. aureus ATCC 29213 (TSB media) were obtained from the American Type Culture Collection (Manassas, VA, USA). Bacillus subtilis KCTC 1998 (LB media), Salmonella typhimurium KCTC 1926 (NB media), and Proteus vulgaris KCTC 2433 (NB media) were obtained from the Korean Collection for Type Cultures (Jeollabuk-do, Korea). E. coli CCARM 1238 was received from the Culture Collection of Antibiotic Resistant Microbes at Seoul Women’s University, Korea. Drug-resistant P. aeruginosa 3543, 3904, 3547, and 4007 and S. aureus 3126, 0027, 5157, 1635, 4761, 5159, 3359, 2122, 1630, 1870, 3511, 5156, and 3518 were resistant strains isolated from patients with otitis media in a Chonnam National University’s hospital.
(§2) The antibacterial activities of AMPs (melittin, clavaspirin, and its analogs) and conventional antibiotic drugs (erythromycin, gentamicin, ampicillin, and piperacidin) were determined using microdilution assays. Bacterial cells were cultured at 37° C in appropriate culture media at pH 5.5 or pH 7.4 until collection during the mid-log phase and suspended in 10 mM sodium phosphate buffer (pH 5.5 or pH 7.4) supplemented with 10% culture medium. Thereafter, 2× serial dilutions of each peptide (0.25–128 μM) or antibiotic (0.25–256 μM) were added to sterile 96-well plates, and aliquots of cell suspension (5 × 10^5 colony forming units (cfu)/mL) were seeded into each well. The samples were then incubated at 37° C for 24 h. At the end of the incubation, the minimum inhibitory concentrations (MICs) of the peptides were determined using a VERSA Max microplate reader (Molecular Devices Co., Sunnyvale, CA, USA) at a wavelength of 600 nm. […] MIC values were calculated as the mean of 3 independent experiments conducted in triplicate.

Another experiment deals with S. aureus. In words: SYTOX-Green uptake. The note with it: S. aureus 2 × 10^7 cfu/mL, 1 μM SYTOX-Green, 10 mM sodium phosphate buffer. It is filed as cell-based. As for the experimental part: S. aureus CCARM 259237 cells were grown to the mid-log phase and suspended in 10 mM sodium phosphate buffer supplemented with 10% culture medium at pH 7.4 and 37° C, and then washed and suspended (2 × 10^7 cfu/mL) in 10 mM sodium phosphate buffer (pH 7.4) and incubated with 1 μM SYTOX-Green for 20 min in the dark. After the addition of peptides at the appropriate concentrations (1/2 MIC, MIC, 2× MIC, and/or 4× MIC), time-dependent increases in fluorescence, which is caused by the binding of the cationic dye to intracellular nucleic acids, was monitored using a Perkin-Elmer LS55 fluorometer (excitation wavelength, 485 nm; emission wavelength, 520 nm).

The test system of another experiment is S. aureus 3359. In words: microbe, parasite or virus in culture. Format: cell-based, Staphylococcus aureus. The note with it: pH 7.4 (II); 10 mM sodium phosphate buffer, 10% LB; 37° C, 24 h; mean of 3 experiments.
Description: as §1, §2

In a further experiment the test system is S. aureus 3511. In words: microbe, parasite or virus in culture. It is filed as cell-based, Staphylococcus aureus. The note with it: pH 7.4 (II); 10 mM sodium phosphate buffer, 10% LB; 37° C, 24 h; mean of 3 experiments.
Description: as §1, §2

Another experiment relates to S. aureus 1870. In words: microbe, parasite or virus in culture. The note with it: pH 7.4 (II); 10 mM sodium phosphate buffer, 10% LB; 37° C, 24 h; mean of 3 experiments. It is filed as cell-based, Staphylococcus aureus.
Description: as §1, §2

The next experiment relates to S. aureus 2122. In words: microbe, parasite or virus in culture. It is filed as cell-based, Staphylococcus aureus. The note with it: pH 7.4 (II); 10 mM sodium phosphate buffer, 10% LB; 37° C, 24 h; mean of 3 experiments.
Description: as §1, §2

Another experiment deals with S. aureus 1635. In words: microbe, parasite or virus in culture. The note with it: pH 7.4 (II); 10 mM sodium phosphate buffer, 10% LB; 37° C, 24 h; mean of 3 experiments. Format: cell-based, Staphylococcus aureus.
Description: as §1, §2

The test system of another experiment is S. aureus 4761. Briefly: microbe, parasite or virus in culture. It is filed as cell-based, Staphylococcus aureus. The note with it: pH 7.4 (II); 10 mM sodium phosphate buffer, 10% LB; 37° C, 24 h; mean of 3 experiments.
Description: as §1, §2

The subject of the next experiment is S. aureus 0027. In words: microbe, parasite or virus in culture. The note with it: pH 7.4 (II); 10 mM sodium phosphate buffer, 10% LB; 37° C, 24 h; mean of 3 experiments. It is filed as cell-based, Staphylococcus aureus.
Description: as §1, §2

The subject of another experiment is S. aureus 5159. In words: microbe, parasite or virus in culture. The note with it: pH 7.4 (II); 10 mM sodium phosphate buffer, 10% LB; 37° C, 24 h; mean of 3 experiments. Format: cell-based, Staphylococcus aureus.
Description: as §1, §2

A further experiment deals with S. aureus 1630. Briefly: microbe, parasite or virus in culture. It is filed as cell-based, Staphylococcus aureus. The note with it: pH 7.4 (II); 10 mM sodium phosphate buffer, 10% LB; 37° C, 24 h; mean of 3 experiments.
Description: as §1, §2

The subject of a further experiment is S. aureus 3126. Briefly: microbe, parasite or virus in culture. Format: cell-based, Staphylococcus aureus. The note with it: pH 7.4 (II); 10 mM sodium phosphate buffer, 10% LB; 37° C, 24 h; mean of 3 experiments.
Description: as §1, §2

Another experiment relates to S. aureus 5156. In words: microbe, parasite or virus in culture. It is filed as cell-based, Staphylococcus aureus. The note with it: pH 7.4 (II); 10 mM sodium phosphate buffer, 10% LB; 37° C, 24 h; mean of 3 experiments.
Description: as §1, §2

Another experiment relates to S. aureus 5157. In words: microbe, parasite or virus in culture. It is filed as cell-based, Staphylococcus aureus. The note with it: pH 7.4 (II); 10 mM sodium phosphate buffer, 10% LB; 37° C, 24 h; mean of 3 experiments.
Description: as §1, §2

The subject of another experiment is S. aureus 3518. In words: microbe, parasite or virus in culture. Format: cell-based, Staphylococcus aureus. The note with it: pH 7.4 (II); 10 mM sodium phosphate buffer, 10% LB; 37° C, 24 h; mean of 3 experiments.
Description: as §1, §2

Experiment [1] has as its system E. coli. Briefly: SYTOX-Green uptake. It is filed as cell-based. The note with it: E. coli 2 × 10^7 cfu/mL, 1 μM SYTOX-Green, 10 mM sodium phosphate buffer, pH 5.5 and pH 7.4.
For experiment [2], the system named is E. coli. Briefly: Membrane depolarization (DiSC3-5). Format: cell-based. The note with it: ex 622 nm, em 670 nm. As for the experimental part: The membrane depolarizing activities of the peptides were evaluated in E. coli cells using the membrane potential-sensitive fluorescent dye DiSC3-5 (3,3′-dipropylthiadicarbocyanine iodide). Two batches of bacterial cells (experiment and control) were grown to mid-log phase at 37° C, harvested, and washed three times with buffer A (20 mM glucose, 5 mM HEPES [pH 7.2]). The cells were then resuspended to an A600 of 0.05 in buffer A containing 0.1 M KCl, after which DiSC3-5 was added to a final concentration of […] and the mixture was incubated for 60 min until the fluorescence level stabilized. The peptides were then added to bacterial suspensions, and the changes in fluorescence were continuously recorded (excitation at 622 nm and emission at 670 nm) for 30 min [36].

Ends that are not written are not given here.

For FLRFIGSVKHGKGHLVHHIGVAL-NH2 [CSP-4], the “Binding to LPS (fluorescence of dansyl polymyxin B)” value with E. coli LPS is given as “dose-dependent increase in fluorescence intensity”. The MIC was determined as 2 µM with E. coli CCARM1238; 8 µM with S. aureus 3359; 8 µM against S. aureus 3511; 8 µM in the experiment with S. aureus 1870; 8 µM in the experiment with S. aureus 2122; 8 µM with S. aureus 1635. The MIC against S. aureus 4761, in the experiment on S. aureus 0027, in the experiment with S. aureus 5159, with S. aureus 1630, against S. aureus 3126 and against S. aureus 5156 was 8 µM throughout. Further, the MIC against S. aureus 5157 and in the experiment on S. aureus 3518 was 8 µM throughout. The “Membrane disruption (SYTOX-Green fluorescence)” value in the experiment on S. aureus and with E. coli [1] was “dose-dependent increase in fluorescence intensity” throughout. For the same substance, the “Membrane depolarization (DisC3–5 fluorescence)” value in the experiment with E. coli [2] was “dose-dependent disruption and resultant depolarization”.
